Holding throughout (experiment): inhibition of tumour cell growth, NCI panel, 48 h
Assay [1] has as its system A498 renal.
In assay [2] the test system is HCT-116 colon.
Assay [3] has as its system HL-60(TB) leukemia.
In assay [4] the test system is OVCAR-8 ovarian.
Assay [5] has as its system SF-268 CNS.
Assay [6] deals with SN12C renal.
The test system of assay [7] is U251 CNS.
Assay [8] deals with EKVX NSCLC.
The test system of assay [9] is MCF7 breast.

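Interpolation was linear, between the two tested concentrations surrounding the appropriate level; five concentrations were tested over 48 hours in 96-well plates. GI50 marks 50% less growth. TGI: total growth inhibition.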 A value given as a limit tells only on which side of the number the result lay.

Take `CCN(CC)CC(=O)/C=C/c1ccc(C)cc1`: the TGI in assay [1] was greater than 100 µM; in [2], 32.4 µM; in assay [3] it was 52 µM; in assay [4], 43.8 µM; in assay [5], 54.8 µM; in [6], 33.4 µM. Besides, the TGI in [7] came to 30.1 µM.

For the molecule `NC1CCCCC1N.O=C([O-])P(=O)([O-])[O-].[Na+].[Pt+4]` (stereo not given), the GI50 in assay [1] was greater than 100 µM; in [8], greater than 100 µM; in assay [2], 47.6 µM; in [3] it was 75.9 µM; in [4] it was 98.2 µM; in assay [5], greater than 100 µM. Further, the GI50 in [6] and in [7] was greater than 100 µM throughout. Besides, the TGI in [1], in [8], in [2], in [3], in assay [4] and in assay [5] was greater than 100 µM in each case. Further, the TGI in [6] and in assay [7] was greater than 100 µM each time.

In the case of `O=c1[nH]c(-c2ccccc2)nc2ccc(Cl)cc12`, the TGI in assay [8], in assay [2], in assay [4], in assay [5], in [6] and in assay [7] was greater than 100 µM throughout.

Take `O=S(=O)([O-])[O-].[Cl-].[NH2-].[NH2-].[NH2-].[NH2-].[Ru+3].c1ccc(-c2cccnc2)cc1`: the GI50 in assay [1], in assay [8], in assay [2], in [3], in assay [4] and in [5] was greater than 100 µM throughout. Moreover, the GI50 in assay [6] and in assay [7] was greater than 100 µM in each case. In addition, the TGI in assay [1], in assay [8], in assay [2], in assay [3], in [4] and in assay [5] was greater than 100 µM in each case. Further, the TGI in assay [6] and in [7] was greater than 100 µM each time.

As to `C[C@]12CC/C(=N\N)C[C@@H]1CC[C@@H]1[C@@H]2CC[C@]2(C)/C(=N/N)CC[C@@H]12`, the GI50 in assay [1], in assay [8], in assay [2], in [3], in assay [9] and in assay [4] was greater than 100 µM throughout. Besides, the GI50 in assay [5], in [6] and in assay [7] was greater than 100 µM each time. In addition, the TGI in assay [1], in assay [8], in [2], in [3], in assay [9] and in assay [4] was greater than 100 µM throughout. The TGI in assay [5], in [6] and in assay [7] was greater than 100 µM throughout.

For the molecule `Cc1cc2c(cc1C)[n+](=O)c(C(=O)/C=C/c1ccc(Cl)cc1)c(C)n2[O-]`, the TGI is 75.9 µM in [1]; greater than 100 µM in assay [8]; greater than 100 µM in [3]; 84.2 µM in [4]; greater than 100 µM in assay [6]; 67.9 µM in [7].

In the case of `COc1cc(N=Nc2ccccc2)cc(/C=N\[N-]C(N)=S)c1[O-].COc1cc(N=Nc2ccccc2)cc(/C=N\[N-]C(N)=S)c1[O-].[Fe+4]`, the GI50 in assay [8] was greater than 100 µM; in [2], 19.5 µM; in [3] it was 12.6 µM; in [4] it was 29.1 µM; in assay [5] it was 12.2 µM. Also, the TGI in [8], in [2], in [3], in [4] and in [5] was greater than 100 µM in each case.

In the case of `O=C(O)CNS(=O)(=O)c1ccc(NC(=O)c2ccc(F)cc2)cc1`, the TGI in assay [1], in assay [8], in assay [3], in assay [4], in [5] and in [6] was greater than 100 µM each time. The TGI in [7] is greater than 100 µM.

For `O=C1CCC2CCc3cccc4oc1c2c34` (stereo not given), the TGI in assay [1], in [8], in assay [2], in assay [3], in assay [4] and in assay [6] was greater than 100 µM each time. Also, the TGI in assay [7] is greater than 100 µM.

With `CC1=C(C)CC2(SC1)C(=O)c1ccccc1C2=O`, the TGI in [1], in [2], in assay [3], in assay [4], in assay [5] and in assay [6] was greater than 100 µM each time. The same molecule displayed a TGI in [7] greater than 100 µM.

Take `CN(C)c1ccc(/C=C/C(=O)C(C)(C)C)cc1Br`: the TGI in assay [1] is greater than 100 µM; in assay [8], greater than 100 µM; in assay [2], 38.1 µM; in assay [4], 54.1 µM; in assay [5], 70 µM; in assay [6], 76 µM. Also, the TGI in [7] is greater than 100 µM.

`COc1ccc(S(=O)(=O)N/N=C/CN2C(=O)c3ccccc3C2=O)cc1OC`: the TGI in [1], in assay [8], in [2], in assay [3], in [4] and in assay [5] was greater than 100 µM throughout. Further, the TGI in assay [7] is greater than 100 µM.

For the molecule `Cn1ccnc1C(c1nccn1C)C(C)(C)[N+](=O)[O-]`, the TGI in assay [1], in [8], in assay [2], in assay [3], in assay [4] and in [5] was greater than 100 µM in each case. For the same molecule, the TGI in assay [6] and in assay [7] was greater than 100 µM throughout.

On to `C=CCC12CCC(=O)C=C1CCC1(C2)OCCO1` (stereo not given), for which the TGI in assay [1], in [8], in assay [2], in assay [3], in [4] and in [5] was greater than 100 µM in each case. The TGI in assay [6] and in [7] was greater than 100 µM each time.

The values are drawn from PubChem BioAssay (NCI).
